From ChEMBL document CHEMBL1201862, “PubChem BioAssay data set” (2004) come the findings set out here.

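Tested at 5 concentrations; 48 h exposure; 96-well plates; endpoints linearly interpolated, else capped at highest concentration. GI50: concentration for 50% inhibition of growth.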 Calls of active or inactive are those of the source. Cut-off read from the data, not from the text of the source: active = GI50 up to about 1.1 µM and inactive = higher. Where only a bound is given, the exact number is not on record here.

Among the test systems are 786-0; HCT-116; HCT-15; HOP-62; IGROV-1; K562; OVCAR-3; OVCAR-4; OVCAR-5; SF-268; SF-295; SF-539; SN12C; SNB-75; SNB-78; U-251; UACC-62; NCI-H522; HCC 2998; MDA-N.
Holding throughout (assay): NCI-60 cell line screen, 48 h

Take `FC(F)(F)c1nc(-c2ccccc2Cl)[nH]c1C(F)(F)F`: the GI50 was 1.08 µM (active) in the assay on 786-0; 0.729 µM (active) with HCT-116; 0.875 µM in the assay on HCT-15; 0.394 µM (active) with HOP-62; 1.15 µM (inactive) in the assay with IGROV-1; 1.03 µM (active) in the assay with K562. In addition, the GI50 in the assay on OVCAR-3 is 0.223 µM (active); in the assay on OVCAR-4, 0.664 µM (active); with OVCAR-5, 0.746 µM (active); in the assay on SF-268 it was 1.23 µM (inactive); in the assay with SF-295, 0.681 µM (active); in the assay with SF-539, 0.893 µM (active). The GI50 in the assay on SN12C is 0.705 µM (active); in the assay on SNB-75, 1.07 µM (active); with SNB-78, 1.06 µM (active); in the assay with U-251, 0.318 µM (active); in the assay with UACC-62 it was 0.766 µM (active).
For the molecule `O=C(CSc1nnc(-c2ccc(/N=C\c3ccc(Cl)cc3)cc2)o1)Nc1ccccc1[N+](=O)[O-]`, the GI50 was > 100 µM (inactive) with 786-0; > 100 µM (inactive) in the assay on HCT-116; greater than 100 µM in the assay on HCT-15; > 100 µM (inactive) in the assay with HOP-62; > 100 µM (inactive) in the assay with K562; > 100 µM (inactive) in the assay on NCI-H522. For the same molecule, the GI50 in the assay with OVCAR-4, in the assay with SF-268, with SF-295, in the assay on SN12C, with SNB-75 and in the assay with SNB-78 was > 100 µM (inactive) throughout. Besides, the GI50 in the assay on U-251 and in the assay with UACC-62 was > 100 µM (inactive) each time.
For `NC(=O)N/N=C(\CCC(=O)N(Cc1ccccc1)Cc1ccccc1)CC(=O)c1ccc(F)cc1`, the GI50 with 786-0 was 27.2 µM (inactive); in the assay with HCC 2998, > 100 µM (inactive); with HCT-116, > 100 µM (inactive); in the assay with HCT-15, greater than 100 µM; with HOP-62, > 100 µM (inactive); in the assay with IGROV-1, > 100 µM (inactive). Moreover, the GI50 in the assay with K562, in the assay on OVCAR-3, in the assay with OVCAR-4, in the assay on OVCAR-5, with SF-268 and with SF-295 was > 100 µM (inactive) in each case. Moreover, the GI50 was 23.8 µM (inactive) in the assay with SF-539; > 100 µM (inactive) with SN12C; > 100 µM (inactive) with SNB-78; > 100 µM (inactive) in the assay with U-251; > 100 µM (inactive) in the assay with UACC-62.
Consider `OC(NN=C1CCCC1)(C(F)(F)Cl)C(F)(F)Cl`, for which the GI50 in the assay on 786-0 was > 10 µM (inactive); in the assay with HCC 2998, > 10 µM (inactive); with HCT-116 it was > 10 µM (inactive); in the assay with HCT-15, greater than 10 µM; in the assay on HOP-62 it was > 10 µM (inactive); with IGROV-1, > 10 µM (inactive). Further, the GI50 in the assay with K562, in the assay on MDA-N, in the assay with NCI-H522, in the assay on OVCAR-3, in the assay on OVCAR-4 and in the assay on OVCAR-5 was > 10 µM (inactive) in each case. Moreover, the GI50 in the assay on SF-268, with SF-295, with SF-539, in the assay on SN12C, in the assay on SNB-75 and with U-251 was > 10 µM (inactive) throughout. The GI50 in the assay on UACC-62 is > 10 µM (inactive).
With `CCCCCCCCCCNC(=O)CCC(NC(=O)c1ccc(N(C)Cc2cnc3nc(N)nc(N)c3n2)cc1)C(=O)NCCCCCCCCCC` (stereo not drawn), the GI50 in the assay on 786-0 was 3.05 µM (inactive); in the assay with HCC 2998 it was 5.75 µM (inactive); with HCT-116, 3.71 µM (inactive); in the assay with HCT-15, 17.9 µM; in the assay on HOP-62, 31.8 µM (inactive); in the assay on IGROV-1, 6.04 µM (inactive). Moreover, the GI50 in the assay on K562 was 0.698 µM (active); in the assay with MDA-N, 4.47 µM (inactive); in the assay on NCI-H522, 4.43 µM (inactive); in the assay with OVCAR-3, 10 µM (inactive); with OVCAR-4, 8.99 µM (inactive); with OVCAR-5 it was 23.8 µM (inactive). The GI50 with SF-268 is 9.62 µM (inactive); with SF-295 it was 43.7 µM (inactive); in the assay on SF-539, 5.13 µM (inactive); in the assay on SN12C, 8.07 µM (inactive); in the assay on SNB-75 it was 11.9 µM (inactive); in the assay on U-251, 4.2 µM (inactive). The GI50 with UACC-62 is 18.9 µM (inactive).
`O=c1[nH]cc(COCCCO)c(=O)[nH]1`: the GI50 was > 100 µM (inactive) in the assay on 786-0; > 100 µM (inactive) in the assay on HCT-116; greater than 100 µM in the assay with HCT-15; > 100 µM (inactive) in the assay with HOP-62; > 100 µM (inactive) with IGROV-1; > 100 µM (inactive) in the assay on K562. In addition, the GI50 in the assay on NCI-H522, in the assay on OVCAR-3, in the assay with OVCAR-4, in the assay with OVCAR-5, in the assay on SF-268 and in the assay with SF-295 was > 100 µM (inactive) throughout. Also, the GI50 with SF-539, with SN12C, with SNB-75, with SNB-78, in the assay on U-251 and in the assay with UACC-62 was > 100 µM (inactive) throughout.
Turning to `CCOC(=O)/C(Br)=C1\OC(=O)c2ccccc2-c2ccccc21`, the GI50 was 52.8 µM (inactive) with 786-0; 49.2 µM (inactive) in the assay with HCC 2998; 43.3 µM (inactive) in the assay with HCT-116; 48.4 µM in the assay with HCT-15; 24.2 µM (inactive) in the assay on HOP-62; 63.5 µM (inactive) in the assay with IGROV-1. In addition, the GI50 is 21.1 µM (inactive) in the assay on K562; 23 µM (inactive) in the assay on NCI-H522; 37.4 µM (inactive) in the assay with OVCAR-3; > 100 µM (inactive) in the assay on OVCAR-5; 43.8 µM (inactive) with SF-268; 36.5 µM (inactive) in the assay on SF-295. Also, the GI50 is 25.1 µM (inactive) in the assay with SF-539; 37.4 µM (inactive) in the assay with SN12C; 26.4 µM (inactive) in the assay with SNB-75; 29.6 µM (inactive) in the assay with SNB-78; 38.5 µM (inactive) in the assay with U-251; 44.4 µM (inactive) with UACC-62.
`O=[N+]([O-])c1ccc(N2C[N+](c3ccccc3)=NC(c3ccccc3)=N2)cc1`: the GI50 in the assay on 786-0 is 59.7 µM (inactive); in the assay on HCT-116, 23.3 µM (inactive); with HCT-15 it was 28.6 µM; in the assay on HOP-62, 17.8 µM (inactive); with IGROV-1, 41.2 µM (inactive); in the assay with K562, 27 µM (inactive). The GI50 in the assay with NCI-H522 was 25.6 µM (inactive); in the assay with OVCAR-3 it was 32.2 µM (inactive); in the assay with OVCAR-4, 44.5 µM (inactive); with OVCAR-5, 73.1 µM (inactive); in the assay with SF-268, 29.4 µM (inactive); in the assay on SF-295, 35.6 µM (inactive). The GI50 with SF-539 was 72.3 µM (inactive); in the assay with SN12C, 46.3 µM (inactive); in the assay on SNB-75, 99.3 µM (inactive); in the assay on SNB-78 it was > 100 µM (inactive); in the assay on U-251, 32.2 µM (inactive); in the assay on UACC-62 it was 26.2 µM (inactive).
As for `CN(C)C(=S)N/N=C(\C(=N/NC(=S)N(C)C)c1ccccn1)c1ccccn1`, the GI50 was 10.4 µM (inactive) in the assay on 786-0; 7.55 µM (inactive) with HCC 2998; 5.78 µM (inactive) with HCT-116; 6.81 µM in the assay on HCT-15; 10.9 µM (inactive) in the assay with HOP-62; 8.41 µM (inactive) in the assay on IGROV-1. The GI50 with K562 is 8.28 µM (inactive); in the assay on MDA-N it was 11.2 µM (inactive); in the assay on NCI-H522, 2.65 µM (inactive); in the assay on OVCAR-3, 3.85 µM (inactive); in the assay on OVCAR-4 it was 7.28 µM (inactive); in the assay on OVCAR-5, 14 µM (inactive). For the same molecule, the GI50 is 6.14 µM (inactive) in the assay with SF-268; 11.6 µM (inactive) with SF-295; 25.5 µM (inactive) in the assay with SF-539; 5.41 µM (inactive) in the assay with SN12C; 12.2 µM (inactive) with SNB-75; 3.99 µM (inactive) with U-251. Further, the GI50 with UACC-62 is 6.3 µM (inactive).
For `COc1ccc(OCC(=O)O)c2c1CCC(C(C)C)C2=O` (stereo not drawn), the GI50 in the assay on 786-0, in the assay on HCC 2998, in the assay with HCT-116, with HOP-62, in the assay with IGROV-1 and in the assay with K562 was > 100 µM (inactive) throughout. Besides, the GI50 in the assay on NCI-H522, in the assay with OVCAR-3, with OVCAR-4, in the assay with OVCAR-5, in the assay with SF-295 and in the assay with SF-539 was > 100 µM (inactive) throughout. The GI50 with SNB-78, in the assay on U-251 and in the assay with UACC-62 was > 100 µM (inactive) in each case.
As for `C=CC(OC(C)=O)c1ccc(OC(C)=O)cc1` (stereo not drawn), the GI50 was 1.56 µM (inactive) with 786-0; 7.01 µM (inactive) in the assay on HCC 2998; 7.05 µM (inactive) with HCT-116; 8.24 µM in the assay on HCT-15; 3.82 µM (inactive) with HOP-62; 15.7 µM (inactive) in the assay on IGROV-1. Moreover, the GI50 with K562 is 20 µM (inactive); with MDA-N it was 4.95 µM (inactive); in the assay on NCI-H522, 1.91 µM (inactive); in the assay with OVCAR-3, 6.11 µM (inactive); in the assay on OVCAR-4 it was 17.2 µM (inactive); in the assay with OVCAR-5, 9.27 µM (inactive). In addition, the GI50 was 4.92 µM (inactive) with SF-268; 7.62 µM (inactive) with SF-295; 2.08 µM (inactive) in the assay on SF-539; 2.1 µM (inactive) in the assay with SN12C; 3.88 µM (inactive) in the assay on SNB-75; 2.3 µM (inactive) with U-251. Also, the GI50 with UACC-62 is 14.8 µM (inactive).
